The record followed here is the NIST ThermoML archive (doi:10.1021/acs.jced.5b00582).

Data set [1] can be described thus: refractive index (Na D-line) (dimensionless). As to conditions: 298.15 K; 101.33 kPa; Liquid; Standard Abbe refractometry.
The conditions of data set [2]: Liquid; for mass density: 298.15 K, 101.33 kPa, Pycnometric method; for vapor or sublimation pressure: Ebulliometric method (Recirculating still).

Each structure is given as a SMILES string. Numbers after ± are expanded uncertainties.

As usually defined, the refractive index is the speed of light in vacuum divided by its phase velocity in the sample. One may read the mass density as the mass of a sample divided by its volume. Broadly, the vapor or sublimation pressure is the pressure of vapour in equilibrium with the condensed phase. As for `COCCOC` [1,2-dimethoxyethane], in data set [1], the refractive index is reported as 1.378 ± 0.0004. Moreover, in data set [2], the mass density is recorded as 860.4 ± 0.3 kg/m3. In addition, the “vapor or sublimation pressure” value in data set [2] (357.71 K) is given as 101.3 ± 0.86 kPa.

For the compound `COCCO` [2-methoxyethan-1-ol], in data set [1], the refractive index is on record as 1.4002 ± 0.0004. Also, in data set [2], the mass density is reported as 960.1 ± 0.3 kg/m3. Moreover, the “vapor or sublimation pressure” value in data set [2] (397.48 K) was 101.3 ± 0.86 kPa.

In the case of `CCC(C)=O` [butanone], in data set [1], the refractive index is listed as 1.3761 ± 0.0004. The mass density in data set [2] is on record as 799.7 ± 0.3 kg/m3. Moreover, the “vapor or sublimation pressure” value in data set [2] (352.76 K) came out at 101.3 ± 0.86 kPa.

On to `CCC(C)OC(C)=O` (configuration not stated) [1-methylpropyl ethanoate], for which the refractive index in data set [1] is 1.3872 ± 0.0004. Further, the mass density in data set [2] was found to be 863.8 ± 0.3 kg/m3. Further, the “vapor or sublimation pressure” value in data set [2] (385.12 K) is on record as 101.3 ± 0.86 kPa.
